From US20100048630A1, “METHODS FOR TREATING CNS DISORDERS” (priority 2008, published 2010) come the findings set out here.

For assay [1], the system named is Male NMRI mice. Put plainly: Spontaneous locomotor activity (four-channel activity monitor). Type of assay: in vivo. The following applies: doses of 5 and 10 mg/kg. On the procedure: (§1) Male NMRI mice weighing 24-26 g were used. The animals were kept in polycarbonate cages in a thermostatically controlled room at 24±2° C. and at a relative humidity (RH) of 50±10%. The room was artificially illuminated from 6 am to 6 pm and the mice were given commercial pellet rat-mouse feed, autoclaved at 105° C. and sterile filtered tap water, ad libitum.
(§2) An aqueous solution of radiprodil, in the form of a complex with heptakis(2,6-di-O-methyl)-β-cyclodextrin (DIMEB), was administered orally at doses of 2.5, 5 and 10 mg/kg (calculated for non-complexed radiprodil). […]
Spontaneous locomotor activity was measured in a four-channel activity monitor manufactured by Farmakotechnika (Hungary). […] The photocell beam, when broken, signaled a count, which was then recorded by a computer.
Each group consisted of 10 animals. […] The horizontal and vertical movements were determined as the number of beam interruptions collected in 15 minute intervals throughout the 1 hour period.
In the spontaneous locomotor activity test, the mean (±s.e.m) value of one hour horizontal activity data (in counts) of each group was calculated.
(§3) The significance of the drug effect was determined by ANOVA followed by post-hoc Duncan-test. The percentage change in the horizontal activity, immobility or “FST-activity” variables were calculated for each dose according to the equation; […]

Assay [2] has as its system Male NMRI mice. As to the kind of experiment: Forced swimming test (FST). In kind it is in vivo. As to conditions: doses of 5 and 10 mg/kg; may be a false positive from nonspecific stimulatory effect. On the procedure: as §1, §2
The forced swimming test (FST) was measured in glass cylinders (height: […], diameter 14 cm) containing 12 cm of water, maintained at 23-25° C. […] The duration of immobility was recorded using a stopwatch. […]
In the forced swimming test, the mean±standard error on the mean (s.e.m) immobility time in seconds was measured. […] The mean (±s.e.m) “FST-activity” value was also calculated for each group and submitted to the same data analysis process as the immobility data.
as §3

With `O=C(Nc1ccc2[nH]c(=O)oc2c1)C(=O)N1CCC(Cc2ccc(F)cc2)CC1` [radiprodil, 2-[4-(4-fluoro-benzyl)-piperidine-1-yl]-2-oxo-N-(2-oxo-2,3-dihydro-benzoxazol-6-yl)acetamide], the “effect on spontaneous motor activity of the mice” value in the assay on Male NMRI mice [1] was “stimulated”. Further, the “effect in the forced swimming test” value with Male NMRI mice [2] is on record as “significant effects”.
